Laboratory results taken from patent publication US20180085330A1, “Dose Adjustment” (AbbVie Inc., priority 2016, published 2018).
Like-named read-outs stand apart in the source and are kept apart here. One block for each molecule: values may come before it.

What was measured:
P-glycoprotein (P-gp) = P-glycoprotein (P-gp) (Homo sapiens, UniProt P08183); assay: P-gp inhibition; assay type: in vitro ADME
[1] = target: T1, breast cancer resistance protein (BCRP) (Homo sapiens, UniProt Q9UNQ0); assay: BCRP inhibition; assay type: in vitro ADME
T1 sequence (Q9UNQ0 1-655): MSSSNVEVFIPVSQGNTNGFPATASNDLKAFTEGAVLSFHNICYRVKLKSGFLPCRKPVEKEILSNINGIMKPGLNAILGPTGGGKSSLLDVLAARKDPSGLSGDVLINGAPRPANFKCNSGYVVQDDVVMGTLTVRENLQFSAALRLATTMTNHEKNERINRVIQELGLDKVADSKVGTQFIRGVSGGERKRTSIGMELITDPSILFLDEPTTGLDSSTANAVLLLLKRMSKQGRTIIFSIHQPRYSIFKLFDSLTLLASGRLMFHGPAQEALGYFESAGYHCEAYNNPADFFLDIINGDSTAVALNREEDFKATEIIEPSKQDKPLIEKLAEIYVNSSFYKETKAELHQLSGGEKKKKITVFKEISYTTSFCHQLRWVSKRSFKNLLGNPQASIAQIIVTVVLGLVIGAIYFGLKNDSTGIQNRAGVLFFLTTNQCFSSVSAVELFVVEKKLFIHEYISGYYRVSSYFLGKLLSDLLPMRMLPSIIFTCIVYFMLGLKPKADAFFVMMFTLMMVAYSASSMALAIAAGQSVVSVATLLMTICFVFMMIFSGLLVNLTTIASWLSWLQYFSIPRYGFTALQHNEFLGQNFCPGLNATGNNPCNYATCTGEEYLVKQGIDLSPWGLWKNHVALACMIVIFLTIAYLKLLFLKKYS

[2] = system: organic anion transporting polypeptide (OATP) 1B1/3; assay: OATP1B1/3 inhibition; assay type: in vitro ADME
cytochrome P450 (CYP) 3A = assay: CYP3A inhibition; assay type: in vitro ADME
CYP1A2 = target: T2, CYP1A2 (Homo sapiens, UniProt P05177); assay: CYP1A2 inhibition; assay type: in vitro ADME
T2 sequence (P05177 1-516): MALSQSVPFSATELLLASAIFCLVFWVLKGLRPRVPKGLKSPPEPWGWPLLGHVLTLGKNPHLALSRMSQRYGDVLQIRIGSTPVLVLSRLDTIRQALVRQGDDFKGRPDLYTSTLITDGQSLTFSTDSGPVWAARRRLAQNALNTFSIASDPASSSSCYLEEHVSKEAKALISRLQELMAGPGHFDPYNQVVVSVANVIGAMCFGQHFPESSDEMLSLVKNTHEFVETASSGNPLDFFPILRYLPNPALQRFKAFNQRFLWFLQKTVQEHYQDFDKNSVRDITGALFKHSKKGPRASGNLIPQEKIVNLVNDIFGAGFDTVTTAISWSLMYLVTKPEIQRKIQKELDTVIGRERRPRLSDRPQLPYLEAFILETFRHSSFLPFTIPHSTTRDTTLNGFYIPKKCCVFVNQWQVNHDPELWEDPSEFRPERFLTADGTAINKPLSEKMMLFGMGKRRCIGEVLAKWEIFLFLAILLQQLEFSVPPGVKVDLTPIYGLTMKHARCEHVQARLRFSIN

[3] = target: T3, uridine glucuronosyltransferase (UGT) 1A1 (Homo sapiens, UniProt P22309); assay: UGT1A1 inhibition; assay type: in vitro ADME
T3 sequence (P22309 26-533): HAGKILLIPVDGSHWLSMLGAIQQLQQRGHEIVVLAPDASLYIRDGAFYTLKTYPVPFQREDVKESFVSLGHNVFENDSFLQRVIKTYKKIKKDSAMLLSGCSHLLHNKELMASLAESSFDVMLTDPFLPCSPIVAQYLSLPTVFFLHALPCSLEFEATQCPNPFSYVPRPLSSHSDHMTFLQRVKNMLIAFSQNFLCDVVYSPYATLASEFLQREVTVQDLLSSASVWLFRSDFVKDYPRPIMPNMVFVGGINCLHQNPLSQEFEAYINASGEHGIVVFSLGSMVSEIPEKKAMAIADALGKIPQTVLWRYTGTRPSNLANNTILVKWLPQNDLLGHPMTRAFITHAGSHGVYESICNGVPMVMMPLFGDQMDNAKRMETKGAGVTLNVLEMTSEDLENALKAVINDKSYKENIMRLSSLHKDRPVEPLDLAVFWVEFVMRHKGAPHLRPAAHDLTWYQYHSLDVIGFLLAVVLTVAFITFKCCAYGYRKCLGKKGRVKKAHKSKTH

P-gp and/or BCRP = assay: Substrate of P-gp and/or BCRP; assay type: in vitro ADME
[4] = Potentially significant drug interactions identified in drug interaction studies (effect on concentration); assay type: in vivo, human
Source text: Table 1 provides the effect of coadministration of glecaprevir and pibrentasvir on concentrations of concomitant drugs and the effect of concomitant drugs on glecaprevir and pibrentasvir.

[5] = Drug interaction studies: pharmacokinetic parameters of coadministered drug in the presence of glecaprevir/pibrentasvir; assay type: in vivo, human; settings: digoxin 0.5 mg single dose; GLE/PIB 400/120 mg once daily
Protocol: (§1) Drug interaction studies were performed with glecaprevir/pibrentasvir and other drugs that are likely to be coadministered and with drugs commonly used as probes for pharmacokinetic interactions.

[6] = Digoxin single dose with multiple doses of glecaprevir and pibrentasvir (Example 3); assay type: in vivo, human (adult male and female subjects)
Source text: This Example assessed pharmacokinetics, safety, and tolerability of multiple doses of glecaprevir and pibrentasvir with a single dose of digoxin. Adult male and female subjects in general good health (N=12) were enrolled in the study.

[7] = Drug-drug interaction evaluation in overseas subjects, Phase 1 clinical studies (Example 6); assay type: in vivo, human (overseas subjects); settings: coadministered with glecaprevir and pibrentasvir
Protocol: The drug-drug interaction (DDI) of glecaprevir and pibrentasvir was characterized from Phase 1 clinical studies in overseas subjects. DDI was evaluated between glecaprevir and pibrentasvir and drug transporter and CYP probes (CYP3A4, CYP1A2, CYP2D6, CYP2C9 and CYP2C19) and concomitant medications used in HCV-infected subjects including anti-retroviral (ARVs), calcium-channel blockers (CCB), angiotensin-receptor blockers (ARBs), opioids and tacrolimus. Safety and tolerability were assessed throughout the studies.

[8] = Drug interaction studies: pharmacokinetic parameters of glecaprevir or pibrentasvir in the presence of coadministered drug; assay type: in vivo, human
Protocol: as §1

OATP1B1/3 = assay: Substrate of OATP1B1/3; assay type: in vitro ADME
[9] = digoxin 0.5 mg single dose with glecaprevir 400 mg QD + pibrentasvir 120 mg QD
[10] = digoxin 0.5 mg single dose, glecaprevir 400 mg QD + pibrentasvir 120 mg QD
[11] = with atazanavir + ritonavir 300 + 100 mg once daily, GLE/PIB 300/120 mg once daily, effect on the first dose of glecaprevir and pibrentasvir
[12] = with carbamazepine 200 mg twice daily, GLE/PIB 300/120 mg single dose
[13] = with cyclosporine 100 mg single dose, GLE/PIB 300/120 mg once daily
[14] = with cyclosporine 400 mg single dose, GLE/PIB 300/120 mg single dose
[15] = with darunavir + ritonavir 800 + 100 mg once daily, GLE/PIB 300/120 mg once daily
[16] = with elvitegravir/cobicistat/emtricitabine/tenofovir alafenamide 150/150/200/10 mg once daily, GLE/PIB 300/120 mg once daily
[17] = with lopinavir/ritonavir 400/100 mg twice daily, GLE/PIB 300/120 mg once daily
[18] = with omeprazole 20 mg once daily, GLE/PIB 300/120 mg single dose
[19] = with omeprazole 40 mg once daily (1 hour before GLE/PIB), GLE/PIB 300/120 mg single dose
[20] = with rifampin 600 mg (first close), GLE/PIB 300/120 mg single dose
[21] = with rifampin 600 mg once daily, GLE/PIB 300/120 mg single dose 24 hours after final rifampin dose

Chain of P-glycoprotein (P-gp) (P08183 whole entry): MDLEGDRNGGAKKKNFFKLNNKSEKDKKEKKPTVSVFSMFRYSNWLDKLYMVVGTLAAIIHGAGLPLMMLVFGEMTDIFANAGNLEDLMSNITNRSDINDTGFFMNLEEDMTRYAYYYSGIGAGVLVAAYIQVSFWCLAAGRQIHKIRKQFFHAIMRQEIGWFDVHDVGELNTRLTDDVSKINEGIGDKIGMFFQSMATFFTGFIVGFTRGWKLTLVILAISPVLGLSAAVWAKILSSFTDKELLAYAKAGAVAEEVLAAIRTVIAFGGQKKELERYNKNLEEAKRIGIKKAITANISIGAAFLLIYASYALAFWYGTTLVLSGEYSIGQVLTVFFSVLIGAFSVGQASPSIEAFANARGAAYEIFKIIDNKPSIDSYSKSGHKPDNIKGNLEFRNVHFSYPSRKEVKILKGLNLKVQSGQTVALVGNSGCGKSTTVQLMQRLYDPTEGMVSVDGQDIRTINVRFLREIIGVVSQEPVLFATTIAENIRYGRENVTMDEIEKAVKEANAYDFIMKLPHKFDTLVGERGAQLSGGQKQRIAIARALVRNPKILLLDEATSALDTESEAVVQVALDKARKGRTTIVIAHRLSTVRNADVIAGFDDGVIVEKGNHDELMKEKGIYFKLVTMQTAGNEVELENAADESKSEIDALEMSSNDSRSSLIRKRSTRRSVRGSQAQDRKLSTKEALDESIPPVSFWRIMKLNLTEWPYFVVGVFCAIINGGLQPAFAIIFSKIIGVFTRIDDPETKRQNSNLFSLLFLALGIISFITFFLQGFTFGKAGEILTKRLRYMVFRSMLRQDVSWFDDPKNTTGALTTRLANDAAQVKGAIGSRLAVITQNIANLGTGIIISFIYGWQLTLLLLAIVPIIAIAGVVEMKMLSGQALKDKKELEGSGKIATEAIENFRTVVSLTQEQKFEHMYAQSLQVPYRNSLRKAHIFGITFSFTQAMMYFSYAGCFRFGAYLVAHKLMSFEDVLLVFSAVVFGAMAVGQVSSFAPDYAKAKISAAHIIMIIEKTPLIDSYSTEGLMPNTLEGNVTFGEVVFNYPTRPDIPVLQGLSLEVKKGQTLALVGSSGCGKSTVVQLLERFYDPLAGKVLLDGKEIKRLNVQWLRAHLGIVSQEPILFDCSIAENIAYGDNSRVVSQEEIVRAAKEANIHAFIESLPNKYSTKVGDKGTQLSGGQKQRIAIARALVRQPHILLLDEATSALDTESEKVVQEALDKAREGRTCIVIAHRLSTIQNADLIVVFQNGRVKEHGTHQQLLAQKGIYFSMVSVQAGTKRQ

inhibition of P-gp (P-glycoprotein (P-gp)): inhibitors
inhibition of BCRP [1]: inhibitors
inhibition of OATP1B1/3 [2]: inhibitors
inhibition of CYP3A (cytochrome P450 (CYP) 3A): weak inhibitors
inhibition of CYP1A2 (CYP1A2): weak inhibitors
inhibition of UGT1A1 [3]: weak inhibitors
substrate of P-gp and/or BCRP (P-gp and/or BCRP): substrates
SMILES: COC(=O)N[C@H](C(=O)N1CCC[C@H]1c1nc2cc([C@H]3CC[C@H](c4cc5nc([C@@H]6CCCN6C(=O)[C@@H](NC(=O)OC)[C@@H](C)OC)[nH]c5cc4F)N3c3cc(F)c(N4CCC(c5ccc(F)cc5)CC4)c(F)c3)c(F)cc2[nH]1)[C@@H](C)OC [pibrentasvir]

SMILES: C[C@H]1O[C@@H](O[C@H]2[C@@H](O)C[C@H](O[C@H]3[C@@H](O)C[C@H](O[C@H]4CC[C@@]5(C)[C@H](CC[C@@H]6[C@@H]5C[C@@H](O)[C@]5(C)[C@@H](C7=CC(=O)OC7)CC[C@]65O)C4)O[C@@H]3C)O[C@@H]2C)C[C@H](O)[C@@H]1O [digoxin]
Effect on Concentration ([4]; concentration of the concomitant drug when coadministered with glecaprevir and pibrentasvir): ↑ digoxin
Central Value Ratio (90% CI) AUC [5]: 1.48
Central Value Ratio (90% CI) Cmax [5]: 1.72
AUCinf higher when coadministered, compared to digoxin alone [6, 9]: 48%
Cmax higher when coadministered, compared to digoxin alone [6, 9]: 72%
fraction of digoxin eliminated in urine, difference with and without glecaprevir and pibrentasvir [6, 10]: ≤ 18%
renal clearance, difference with and without glecaprevir and pibrentasvir [6, 10]: ≤ 18%
AUC increase [7]: 48%

Effect on Concentration ([4]; concomitant Darunavir, Lopinavir, Ritonavir): ↑ glecaprevir
Effect on Concentration ([4]; concomitant St. John's Wort (hypericum perforatum)): ↓ glecaprevir
Effect on Concentration ([4]; concomitant drug Carbamazepine): ↓ glecaprevir
Effect on Concentration ([4]; concomitant drug Cyclosporine): ↑ glecaprevir
Effect on Concentration ([4]; concomitant drug Efavirenz): ↓ glecaprevir
Central Value Ratio (90% CI) AUC [8, 11]: ≥6.53
Central Value Ratio (90% CI) Cmax [8, 11]: ≥4.06
Central Value Ratio (90% CI) Cmin [8, 11]: ≥14.3
Central Value Ratio (90% CI) AUC [8, 12]: 0.34
Central Value Ratio (90% CI) Cmax [8, 12]: 0.33
Central Value Ratio (90% CI) AUC [8, 13]: 1.37
Central Value Ratio (90% CI) Cmax [8, 13]: 1.30
Central Value Ratio (90% CI) Cmin [8, 13]: 1.34
Central Value Ratio (90% CI) AUC [8, 14]: 5.08
Central Value Ratio (90% CI) Cmax [8, 14]: 4.51
Central Value Ratio (90% CI) AUC [8, 15]: 4.97
Central Value Ratio (90% CI) Cmax [8, 15]: 3.09
Central Value Ratio (90% CI) Cmin [8, 15]: 8.24
Central Value Ratio (90% CI) AUC [8, 16]: 3.05
Central Value Ratio (90% CI) Cmax [8, 16]: 2.50
Central Value Ratio (90% CI) Cmin [8, 16]: 4.58
Central Value Ratio (90% CI) AUC [8, 17]: 4.38
Central Value Ratio (90% CI) Cmax [8, 17]: 2.55
Central Value Ratio (90% CI) Cmin [8, 17]: 18.6
Central Value Ratio (90% CI) AUC [8, 18]: 0.71
Central Value Ratio (90% CI) Cmax [8, 18]: 0.78
Central Value Ratio (90% CI) AUC [8, 19]: 0.49
Central Value Ratio (90% CI) Cmax [8, 19]: 0.36
Central Value Ratio (90% CI) AUC [8, 20]: 8.55
Central Value Ratio (90% CI) Cmax [8, 20]: 6.52
Central Value Ratio (90% CI) AUC [8, 21]: 0.12
Central Value Ratio (90% CI) Cmax [8, 21]: 0.14
inhibition of P-gp (P-glycoprotein (P-gp)): inhibitors
inhibition of BCRP [1]: inhibitors
inhibition of OATP1B1/3 [2]: inhibitor
inhibition of OATP1B1/3 ([2]; listed as Glecaprevir): inhibitors
inhibition of CYP3A (cytochrome P450 (CYP) 3A): weak inhibitors
inhibition of CYP1A2 (CYP1A2): weak inhibitors
inhibition of UGT1A1 [3]: weak inhibitors
substrate of P-gp and/or BCRP (P-gp and/or BCRP): substrates
substrate of OATP1B1/3 (OATP1B1/3): substrate
SMILES: CC(C)(C)[C@@H]1NC(=O)O[C@@H]2CCC[C@H]2OC/C=C/C(F)(F)c2nc3ccccc3nc2O[C@@H]2C[C@@H](C(=O)N[C@]3(C(=O)NS(=O)(=O)C4(C)CC4)C[C@H]3C(F)F)N(C2)C1=O [glecaprevir, Glecaprevir]
